Laboratory results taken from PubChem BioAssay (NCI).
“And” between values parts separate entries of the source, which are not always exact repeats. Identical values can stand only once.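 All cell lines were grown in 96-well plates and treated with compound for 48 hours. GI50 = concentration required for 50% inhibition of growth. TGI is the concentration that stops growth completely.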

Assays:
Experiment in all cases: DTP human tumour cell line panel, 48 h
[1] = tested on: HS 578T breast
[2] = tested on: DU-145 prostate
[3] = tested on: A498 renal
[4] = tested on: U251 CNS
[5] = tested on: NCI-H522 lung
[6] = tested on: CAKI-1 renal
[7] = tested on: NCI-H226 lung
[8] = tested on: SF-295 CNS
[9] = tested on: A549 NSCLC
[10] = tested on: T-47D breast

SMILES | TGI [1] [µM] | TGI [2] [µM] | TGI [3] [µM] | TGI [4] [µM] | TGI [5] [µM] | TGI [6] | TGI [7] [µM] | TGI [8] | TGI [9] [µM] | TGI [10] | GI50 [1] [µM] | GI50 [2] [µM] | GI50 [3] [µM] | GI50 [4] [µM] | GI50 [5] [µM] | GI50 [6] [µM] | GI50 [7] [µM] | GI50 [8] [µM] | GI50 [9] [µM] | GI50 [10] [µM]
Cc1nc2sc3c(c2c(=O)[nH]1)CCCC3 | > 100 | > 100 | > 100 | > 100 | > 100 | > 100 µM | > 100 | > 100 µM | > 100 | > 100 µM |  |  |  |  |  |  |  |  |  | 
CCOc1ccncc1[N+](=O)[O-] | > 100 | > 100 | > 100 | > 100 | > 100 | > 100 µM | > 100 | > 100 µM | > 100 | > 100 µM |  |  |  |  |  |  |  |  |  | 
Cn1cc(C2=C(c3cccc(Br)c3)C(=O)NC2=O)c2ccccc21 | > 25 | > 25 | 17.9 | > 25 | > 25 | > 25 µM | > 25 | > 25 µM | > 25 | > 25 µM | 3.92 | > 25 | 4.51 | 12.3 | 10.4 | 9.63 | 10.4 | 12.9 | 11.1 | 8.11
C#COc1cccc(Nc2c(C#N)cnc3ncc(NC(=O)CCl)cc23)c1 | > 62.5 | > 62.5 | > 62.5 | 53.6 | 21.4 | > 62.5 µM | > 62.5 | > 62.5 µM | > 62.5 | > 62.5 µM | > 62.5 | 42.1 | 45.8 | 12.5 | 9.77 | > 62.5 | > 62.5 | > 62.5 | 46.9 | 23.3
COc1ccc(-n2c(C)cc(-c3ccccc3)c2C)cc1 | > 100 | 22.3 | 9 | 25.4 | 4.68 | 7.55 µM | 31.2 | 7.58 µM | 38.7 | 67.2 µM | 4.58 | 4.66 | 0.637 | 2.87 | 1.48 | 1.57 | 5.75 | 2.2 | 2.88 | 1.65
O=CN1CCN(CC(O)CN2CCCCC2)CC1 (stereo not drawn) | > 100 | > 100 | > 100 | > 100 | > 100 | > 100 µM | > 100 | > 100 µM | > 100 | > 100 µM |  |  |  |  |  |  |  |  |  | 
COc1cc(OC)c(/C=C/c2c3ccccc3cc[n+]2C)c(OC)c1 | 37.5 | 48.8 | 7.26 | 14.1 | 6.49 | > 100 µM | > 100 | > 53.4 µM | > 100 | > 26.2 µM | 2.43 | 2.96 | 1 | 1.1 | 1.52 | 18.6 | 2.73 | 2.17 | 2.13 | 0.541
COc1ccc(O)c(C(=O)c2ccc(C(=O)N[C@H]3CCCNC[C@@H]3NC(=O)c3ccncc3)cc2)c1F | 12.5 | 24.5 | 3.26 | > 25 | > 25 | > 25 µM | > 25 | > 18.9 µM | > 25 | > 25 µM | 0.0882 | 7.28 | 0.331 | 8.12 | 7.69 | > 25 | > 25 | 1.9 | 16.3 | 0.463
c1ccc2nc3c(nc2c1)sc1ccccc13 | > 100 | > 100 | 78.2 | 34.1 | > 100 | 30.2 µM | 66.8 | > 100 µM | > 100 | > 100 µM |  |  |  |  |  |  |  |  |  | 
CC(C)(S)C(N)C(=O)O (stereo not drawn) | > 100 | > 5000 | > 100 | > 5000 | > 5000 | 2570 µM and > 100 µM | > 5000 | 3660 µM and > 100 µM | > 5000 | 2680 µM and > 100 µM |  | 1600 |  | 1780 | 4600 | 983 | > 5000 | 963 | 1780 | 1170
O=C(Nc1ccc(-n2ccc3c(NC(=O)c4ccccc4)nccc32)cc1)Nc1ccc(Cl)c(Cl)c1 | 3.47 | 3.92 | 7.58 | 1.92 | 3.7 | 6.88 µM | 97.7 | 3.18 µM | 2.57 | 5.33 µM | 0.791 | 1.57 | 2.58 | 0.373 | 1.45 | 1.65 | 15.9 | 0.877 | 1.01 | 2.03
CCCCCOc1ccc(/C=N/Nc2cc(C)nc3ccc(Br)cc23)cc1 | 5.64 | 3.25 | 3.32 | 3.39 | 4.71 | 2.99 µM | 4.32 | 3.5 µM | 3.69 | 3.89 µM | 2.33 | 1.81 | 1.83 | 1.82 | 2.06 | 1.63 | 1.85 | 1.81 | 1.9 | 1.81
